One data set has as its system phospho-Tau. In words: Phospho-Tau assay using cultured rat cortical neurons (okadaic acid insult). The data set is classed as cell-based. The following applies: 30 nM okadaic acid; for Tau phosphorylated at Ser202/Thr205: 50 μM pretreatment; for Tau phosphorylated at Ser202/Thr205 / Tau phosphorylated at Ser396: rat cortical neurons; for hyperphosphorylation of Tau (pTau accumulation) induced by okadaic acid / Tau phosphorylated at Ser396: pretreatment; for hyperphosphorylation of Tau (pTau accumulation) induced by okadaic acid: rat cortical cultures, FIG. 14 and 15B. The procedure:
Phospho-Tau Assay Using Cultured Rat Cortical Neurons. Primary cortical cell cultures were prepared as described previously.^2 Briefly, pregnant Sprague Dawley dams were euthanized at embryonic day 18 (E18), and the cortices of the pups were harvested. Cells were plated on poly-d-lysine coated plates at 15,000 cells per well. Cultures were maintained at 37° C. under an atmosphere containing 5% CO2. Plating media consisted of 10% heat-inactivated fetal bovine serum (FBS; Fisher) 1% penicillin-streptomycin (Fisher), and 0.5 mM glutamine (Life Technologies) in Neurobasal (Fisher). After 16-24 h, media was exchanged for replacement media consisting of IX B27 supplement (Fisher), 1% penicillin-streptomycin, 0.5 mM glutamine, and 12.5 μM glutamate in Neurobasal. On DIV6 and DIV13, 50% of media was removed, and feeding media containing 1×B27 supplement, 1% penicillin-streptomycin, 0.5 mM glutamine in Neurobasal was added with an additional 20% volume added to account for evaporation. On DIV14, the volume of each well was adjusted to 180 μL. Next, 1000× solutions of compounds in DMSO were diluted 1:100 into Neurobasal and 20 μL of the resulting solutions was added to the appropriate wells (total dilution=1:1000, 0.1% DMSO). For wells that were not treated with compounds, DMSO was diluted 1:100 into Neurobasal and 20 μL of the resulting solution was added to the appropriate wells. All treatments were randomized. After 24 h, 20 μL was removed from each well. […] After 1 h, neurons were fixed by removing 80% of the media and replacing it with a volume of 4% aqueous paraformaldehyde (ThermoFisher) equal to 50% of the working volume of the well. Then, the cells were incubated at room temperature for 15 min before the fixative was aspirated and each well was washed twice with DPBS. Cells were permeabilized using 0.2% Triton X-100 (ThermoFisher) in DPBS for 15 min at room temperature without shaking. Plates were blocked with blocking buffer (2% bovine serum albumin and […] in DPBS) overnight at 4° C. Then, plates were incubated overnight at 4° C. with gentle shaking in antibody dilution buffer (ADB) (1% bovine serum albumin and […] in DBPS) containing a chicken anti-MAP2 antibody (1:10,000; EnCor, CPCA-MAP2), guinea pig anti-Tau antibody (1:1000; Synaptic Systems), mouse anti-phosphoTau (Ser202/Thr205) antibody (1:1000; Invitrogen), and rabbit anti-phosphoTau (Ser396) antibody (1:1000; Invitrogen). Plates were washed twice with DPBS and once with ADB before being incubated for 1 h at room temperature in ADB containing an anti-chicken IgY secondary antibody conjugated to Alexa Fluor™ Plus 800 (1:1000; Invitrogen), an anti-mouse IgG secondary antibody conjugated to Alexa Fluor™ Plus 680 (1:1000; Invitrogen), an anti-guinea pig IgG secondary antibody conjugated to Alexa Fluor™ 596 (1:1000; Invitrogen), and an anti-rabbit IgG secondary antibody conjugated to Alexa Fluor™ Plus 488 (1:1000; Invitrogen). Plates were washed three times with DBPS, and after the final wash, 100 μL of DPBS was added per well before imaging on a CellInsight™ CX7 High Content Analysis imager at 20× with 12 ROIs taken per well with no bias to location and no overlap of the ROIs. Images were analyzed using Cellnomics Scan software (version 6.6.2). The compartmental analysis assay was used to measure the average intensity of each channel per field and determine the reported intensity ratios.

A further data set concerns C57BL/6J mice. In words: Locomotion in open field chamber. The data set is classed as in vivo. The following applies: doses up to 30 mg/kg. The procedure: Animals. Female C57BL/6J mice used in the head twitch response and locomotion assays, and Sprague Dawley dams used to generate embryonic cultures were obtained from Jackson Laboratory (Sacramento, CA). Mice were housed in a temperature- and humidity-controlled room maintained on a 12 h light/dark cycle in groups of four to five (same sex). Animals weighed between 17 and 30 g at the time of the experiments. All experimental procedures involving rodents were approved by the UC Davis Institutional Animal Care and Use Committee (IACUC) and adhered to principles described in the National Institutes of Health Guide for the Care and Use of Laboratory Animals. The University of California, Davis is accredited by the Association for Assessment and Accreditation of Laboratory Animal Care International (AAALAC).
Head-Twitch Response and Locomotion. Mice (9-10 weeks old) were injected intraperitoneally with compounds dissolved in 10% Kolliphor® EL (Sigma) and 10% DMSO in 0.9% saline (injection volume 5 mL/kg) or vehicle, placed in an empty cage, and filmed for 10 min. Locomotion was quantified using ANYmaze Video Tracking System, version 7.07 (Stoelting Co.). […] The last 20 min of each video were scored by one trained observer blinded to the treatment conditions.

Data set [1] relates to embryonic rat cortical cultures. Briefly: Total neurite length in embryonic rat cortical cultures. In kind it is cell-based. The following applies: embryonic rat cortical cultures (DIV=0), treated for 72 h. The procedure: Each data point represents a well average from two independent cultures. Data are represented as mean f SEM. *p<0.05, **p<0.01, ***p<0.001, ****p<0.0001, as compared to the vehicle control following a one-way ANOVA with Dunnett's post hoc test. VEH=vehicle; DON=250 nM donepezil; OKA=30 nM okadaic acid.

Each structure is given as a SMILES string.

Regarding `COc1ccc2c3ccnc(C)c3n(CCN(C)C)c2c1.O=C(O)/C=C/C(=O)O` [HTW_A_8 fumarate, 2-(7-methoxy-1-methyl-9H-pyrido[3,4-b]indol-9-yl)-N,N-dimethylethan-1-amine Fumarate Salt (2:3)], in the data set with phospho-Tau, the “Tau phosphorylated at Ser202/Thr205” value is listed as “can block an increase in Tau phosphorylated at Ser202/Thr205”, the “hyperphosphorylation of Tau (pTau accumulation) induced by okadaic acid” value is on record as “blocks hyperphosphorylation of Tau” and the “Tau phosphorylated at Ser396” value is recorded as “no reduction”. The “total distance traveled in open field chamber” value with C57BL/6J mice is on record as “do not significantly affect the total distance traveled”. The “average total neurite length per neuron” value in data set [1] is given as “significantly increase average total neurite length per neuron”.
As for `COc1ccc2c(c1)N(CCN(C)C)/C(=C/C(C)=O)S2.O=C(O)/C=C/C(=O)O` [HTW_B_14 fumarate, (Z)-1-(3-(2-(dimethylamino)ethyl)-5-methoxybenzo[d]thiazol-2(3H)-ylidene)propan-2-one Fumarate Salt (1:1)], in the data set on phospho-Tau, the “Tau phosphorylated at Ser202/Thr205” value is on record as “not observed” and the “Tau phosphorylated at Ser396” value is recorded as “no reduction”. Also, in the data set on C57BL/6J mice, the “total distance traveled in open field chamber” value is recorded as “do not significantly affect the total distance traveled”. Besides, the “average total neurite length per neuron” value in data set [1] is “significantly increase average total neurite length per neuron”.
Consider `COc1ccc2c(c1)[nH]c1c(C)nccc12` [Harmine, harmine], for which the “hyperphosphorylation of Tau (pTau accumulation) induced by okadaic acid” value with phospho-Tau is “prevents pTau accumulation in cortical neurons”.

The values are drawn from patent US20260284018A1, “DUAL INHIBITORS OF DYRK1A AND 5-HT2 FOR TREATING A BRAIN DISORDER” (THE REGENTS OF THE UNIVERSITY OF CALIFORNIA, priority 2023, published 2026).
